Where two headings read alike, the source gives them in different places.
Test system: HSV-2 virus (MS strain)
Test: HSV-2 Cellomics Assay (immunofluorescence of HSV protein gD in infected ARPE-19 cells)
Settings: Human alphaherpesvirus 2, ARPE-19, 16 h
[1] = read-out: EC50-HSV2-10% Human Serum

Description: Compounds were tested for their ability to inhibit HSV-2 replication by monitoring the expression of the HSV protein gD using a high-throughput immunofluorescence-based assay. 10-dose, 3-fold serial dilutions of compounds were prepared at starting concentrations of 0.2 or 2 mM in 100% DMSO. […] The final starting concentration in the assay was either 1 or 10 μM. DMSO (no compound) and pritelivir were included on each microplate as negative and positive controls, respectively.
Prior to confluence, cells were transferred to a centrifuge tube and spun for 5 minutes at 1000 rpm. Cells were resuspended in assay medium (DMEM/F-12 Glutamax, 2% FBS, 1% Penicillin-Streptomycin) and counted. Cell density was adjusted to 150,000 cells/ml and infected with HSV-2 virus (MS strain, ATCC cat #VR-540) at a MOI of 0.06 in a 50 ml conical tube for 1 hour under constant rocking. Cells were then spun for 5 minutes at 1000 rpm and the media replaced with assay medium containing either 2% FBS or 10% human serum (EMD Millipore cat #S1-100 ML). 50 μl of the infection suspension were added into microplate wells that were pre-spotted with compounds (7,500 cells per well). Plates were incubated for 16 hours at 37° C.
After a 30-minute incubation at room temperature, plates were washed 4 times with 100 μl/well of PBS using a Biotek plate washer. […] Plates were washed 4 times again and 50 μl of DPBS were added to all wells prior to sealing the plates with a black adhesive seal. Fluorescence was measured on a Cellomics plate reader.
Data analysis was carried out using the Thermo Scientific HCS Studio software. Briefly, cells were identified using the DAPI nuclear stain and thresholds were set to filter cells out based on shape and size. A second threshold based on green fluorescence intensity (detection of HSV-2 gD) was set to identify HSV-2 infected cells. Data was reported as the average fluorescence intensity of HSV-2 infected cells.

C[S@@](=N)(=O)c1cc2c(cc1F)CCN2C(=O)[C@@H]1Cc2ccc(-c3cc(F)ccc3F)cc2C1 [Example 52]
EC50 [1]: 2000 nM | EC50 (read-out: EC50-HSV2-FBS): 340 nM

COc1cncc(-c2ccc3c(c2)CC(C(=O)N2CCc4ccc(S(N)(=O)=O)cc42)C3)n1 (centres unmarked) [Example 72]
EC50 [1]: 12300 nM | EC50 (read-out: EC50-HSV2-FBS): 252 nM

C[C@@H]1c2ccc(-c3ccccn3)cc2C[C@H]1C(=O)N1CCc2ccc(S(N)(=O)=O)cc21 [Example 93, 1-((1S,2R)-1-methyl-5-(pyridin-2-yl)-2,3-dihydro-1H-indene-2-carbonyl)indoline-6-sulfonamide]
EC50 [1]: ≥ 25000 nM | EC50 (read-out: EC50-HSV2-FBS): 1850 nM

C[S@@](=N)(=O)c1ccc2c(c1)N(C(=O)[C@@H]1Cc3ccc(-c4ccccn4)cc3C1)CC2 (single isomer, unassigned) [Example 31]
EC50 [1]: 9380 nM | EC50 (read-out: EC50-HSV2-FBS): 849 nM

CS(=N)(=O)c1cc2c(cc1F)CCN2C(=O)[C@@H]1Cc2ccc(-c3ccccn3)cc2C1 (mixture of isomers) [Example 39, (5-fluoro-1-((R)-5-(pyridin-2-yl)-2,3-dihydro-1H-indene-2-carbonyl)indolin-6-yl)(imino)(methyl)-λ^6-sulfanone]
EC50 [1]: 188 nM | EC50 (read-out: EC50-HSV2-FBS): 45 nM

Cc1c(S(N)(=O)=O)ccc2c1N(C(=O)C1Cc3ccc(-c4ccccn4)cc3C1)CC2 (centres unmarked) [Example 1]
EC50 (read-out: EC50-HSV2-FBS): 721 nM

C[C@H]1c2cc(F)c(S(N)(=O)=O)cc2N(C(=O)[C@@H]2Cc3ccc(-c4ccccn4)cc3C2)[C@H]1C [Example 49, (2S,3S)-5-fluoro-2,3-dimethyl-1-((R)-5-(pyridin-2-yl)-2,3-dihydro-1H-indene-2-carbonyl)indoline-6-sulfonamide]
EC50 [1]: 1040 nM | EC50 (read-out: EC50-HSV2-FBS): 162 nM

C[S@@](=N)(=O)c1cc2c(cc1F)CCN2C(=O)[C@@H]1Cc2ccc(-c3ccccn3)cc2C1 [Example 40, (R)-(5-fluoro-1-((R)-5-(pyridin-2-yl)-2,3-dihydro-1H-indene-2-carbonyl)indolin-6-yl)(imino)(methyl)-16-sulfanone]
EC50 [1]: 816 nM | EC50 (read-out: EC50-HSV2-FBS): 196 nM

CC1CN(C(=O)[C@@H]2Cc3cc(-c4ccccn4)ccc3[C@H]2C)c2cc(S(N)(=O)=O)ccc21 (stereo partly drawn) [Example 101, 3-methyl-1-((1S,2R)-1-methyl-5-(pyridin-2-yl)-2,3-dihydro-1H-indene-2-carbonyl)indoline-6-sulfonamide]
EC50 (read-out: EC50-HSV2-FBS): 6760 nM

COc1cc2c(cc1S(N)(=O)=O)N(C(=O)C1Cc3ccc(-c4ccccn4)cc3C1)CC2 (centres unmarked) [Example 111, 5-Methoxy-1-[5-(2-pyridyl)indane-2-carbonyl]indoline-6-sulfonamide]
EC50 [1]: ≥ 25000 nM | EC50 (read-out: EC50-HSV2-FBS): 1740 nM

N#Cc1nc(-c2ccc3c(c2)CC(C(=O)N2CCc4ccc(S(N)(=O)=O)cc42)C3)cs1 (centres unmarked) [Example 27]
EC50 (read-out: EC50-HSV2-FBS): 383 nM

CS(=N)(=O)c1ccc2c(c1)N(C(=O)C1Cc3ccc(-c4ccccn4)cc3C1)CC2 (centres unmarked) [Example 29, imino(methyl)(1-(5-(pyridin-2-yl)-2,3-dihydro-1H-indene-2-carbonyl)indolin-6-yl)-λ^6-sulfanone]
EC50 [1]: 3240 nM | EC50 (read-out: EC50-HSV2-FBS): 193 nM

CS(=N)(=O)c1cc2c(cc1F)CCN2C(=O)[C@@H]1Cc2ccc(-c3cc(F)ccc3F)cc2C1 (stereo partly drawn) [Example 51, (1-((R)-5-(2,5-difluorophenyl)-2,3-dihydro-1H-indene-2-carbonyl)-5-fluoroindolin-6-yl)(imino)(methyl)-λ^6-sulfanone]
EC50 [1]: 239 nM | EC50 (read-out: EC50-HSV2-FBS): 53 nM

NS(=O)(=O)c1ccc2c(c1)N(C(=O)C1Cc3ccc(-c4ccccn4)c(F)c3C1)CC2 (centres unmarked) [Example 10]
EC50 (read-out: EC50-HSV2-FBS): 537 nM

CC1CN(C(=O)[C@H]2Cc3cc(-c4ccccn4)ccc3[C@@H]2C)c2cc(S(N)(=O)=O)c(F)cc21 (mixture of isomers) [Example 103, 5-fluoro-3-methyl-1-((1R,2S)-1-methyl-5-(pyridin-2-yl)-2,3-dihydro-1H-indene-2-carbonyl) indoline-6-sulfonamide]
EC50 [1]: 221 nM | EC50 (read-out: EC50-HSV2-FBS): 36 nM

CC1c2ccc(-c3ccccn3)cc2CC1C(=O)N1CCc2ccc(S(N)(=O)=O)cc21 (centres unmarked) [Example 92]
EC50 [1]: 238 nM | EC50 (read-out: EC50-HSV2-FBS): 28 nM

C[C@@H]1Cc2cc(F)c(S(N)(=O)=O)cc2N1C(=O)[C@@H]1Cc2cc(-c3ccccn3)ccc2O1 [Example 43]
EC50 [1]: 9270 nM | EC50 (read-out: EC50-HSV2-FBS): 352 nM

NS(=O)(=O)c1ccc2c(c1)N(C(=O)[C@@H]1Cc3ccc(-c4cc(F)ccc4F)cc3C1)CC2 [Example 45, (R)-1-(5-(2,5-difluorophenyl)-2,3-dihydro-1H-indene-2-carbonyl)indoline-6-sulfonamide]
EC50 [1]: ≥ 10000 nM | EC50 (read-out: EC50-HSV2-FBS): 67 nM

C[C@@H]1c2ccc(-c3ccccn3)cc2C[C@H]1C(=O)N1CCc2cc(F)c(S(N)(=O)=O)cc21 [Example 98, 5-fluoro-1-((1S,2R)-1-methyl-5-(pyridin-2-yl)-2,3-dihydro-1H-indene-2-carbonyl)indoline-6-sulfonamide]
EC50 [1]: 6650 nM | EC50 (read-out: EC50-HSV2-FBS): 1360 nM

C[C@@H]1Cc2ccc(S(N)(=O)=O)cc2N1C(=O)[C@H]1Cc2ccc(-c3ccccn3)cc2C1 (single isomer, unassigned) [Example 14]
EC50 (read-out: EC50-HSV2-FBS): 2480 nM

C[C@H]1Cc2ccc(S(N)(=O)=O)cc2N1C(=O)[C@H]1Cc2ccc(-c3ccccn3)cc2C1 (single isomer, unassigned) [Example 17]
EC50 (read-out: EC50-HSV2-FBS): 551 nM

Cc1nc(-c2ccc3c(c2)CC(C(=O)N2CCc4ccc(S(N)(=O)=O)cc42)C3)cs1 (centres unmarked) [Example 25]
EC50 [1]: ≥ 25000 nM | EC50 (read-out: EC50-HSV2-FBS): 32 nM

Cc1cc(S(N)(=O)=O)cc2c1CCN2C(=O)C1Cc2ccc(-c3ccccn3)cc2C1 (centres unmarked) [Example 2]
EC50 [1]: 23600 nM | EC50 (read-out: EC50-HSV2-FBS): 65 nM

NS(=O)(=O)c1ccc2c(c1F)N(C(=O)C1Cc3ccc(-c4ccccn4)cc3C1)CC2 (centres unmarked) [Example 4]
EC50 [1]: ≥ 25000 nM | EC50 (read-out: EC50-HSV2-FBS): 284 nM

NS(=O)(=O)c1ccc2c(c1)N(C(=O)C1Cc3ccc(-c4ccccn4)cc3O1)CC2 (centres unmarked) [Example 115, 1-(6-(pyridin-2-yl)-2,3-dihydrobenzofuran-2-carbonyl)indoline-6-sulfonamide]
EC50 [1]: 1640 nM | EC50 (read-out: EC50-HSV2-FBS): 99 nM

NS(=O)(=O)c1ccc2c(c1)N(C(=O)[C@@H]1Cc3ccc(-c4ccccc4F)cc3C1)CC2 [Example 83, (R)-1-(5-(2-fluorophenyl)-2,3-dihydro-1H-indene-2-carbonyl)indoline-6-sulfonamide]
EC50 [1]: ≥ 25000 nM | EC50 (read-out: EC50-HSV2-FBS): 177 nM

C[C@H]1CN(C(=O)[C@H]2Cc3cc(-c4ccccn4)c(F)cc3O2)c2cc(S(N)(=O)=O)c(F)cc21 [Example 137, (R)-5-fluoro-1-((R)-6-fluoro-5-(pyridin-2-yl)-2,3-dihydrobenzofuran-2-carbonyl)-3-methylindoline-6-sulfonamide]
EC50 [1]: 538 nM | EC50 (read-out: EC50-HSV2-FBS): 129 nM

NS(=O)(=O)c1ccc2c(c1)N(C(=O)[C@H]1Cc3ccc(-c4ccccn4)cc3C1)CC2 [Example 80, (S)-1-(5-(pyridin-2-yl)-2,3-dihydro-1H-indene-2-carbonyl)indoline-6-sulfonamide]
EC50 (read-out: EC50-HSV2-FBS): 409 nM

CC1(C)CN(C(=O)C2Cc3ccc(-c4ccccn4)cc3C2)c2cc(S(N)(=O)=O)ccc21 (centres unmarked) [Example 109]
EC50 (read-out: EC50-HSV2-FBS): 390 nM

From US12522582B2 (Gilead Sciences, Inc., priority 2022, dated 2026)
